Reference: patent US8350015B2, “Cyanine dye” (Kabushiki Kaisha Hayashibara Seibutsu Kagaku Kenkyujo, priority 2004, dated 2013)

Test: Optical resistance of cyanine dye thin membrane exposed to xenon lamp
Assay type: physicochemical
Details: xenon lamp 180 W/m^2, exposure 5.5 hours
Description: The resulting solution was poured dropwise on one side of a polished glass plate (5 cm×5 cm) and homogenously spread over the surface of the plate by turning the plate at 1,000 rpm for one minute. Successively, thin membrane of the cyanine dye in this invention was formed on the glass plate by drying in the ventilation of warm and cooled air in this order. Immediately after determining optical transmittance (T0) of the cyanine dye in the form of thin membrane at absorption maximum (about 450 nm) wavelength, the membrane was exposed to xenon lamp (light-irradiation energy of 180 W/m^2 on the plate surface) in the ventilation of cooled air while placing […] xenon lamp with a prescribed distance away from the glass plate, after which the membrane was immediately determined for optical transmittance (T) at absorption maximum wavelength. Thereafter, residual dye rate (%) was calculated by substituting the obtained optical transmittances (T and T0) to Formula 1. In parallel, another thin membrane formed by cyanine dye represented by Chemical Formula 14 (Control 1), a additional thin membrane formed by cyanine dye represented by Chemical Formula 16 (Control 2), a further thin membrane formed by cyanine dye represented by Chemical Formula 14 and an equimolar azometallic complex represented by Chemical Formula 15 as an optical resistance-improving agent (Control 3), and one more additional thin membrane formed by cyanine dye represented by Chemical Formula 16 and an equimolar azometallic complex represented by Chemical Formula 15 as an optical resistance-improving agent (Control 4) were determined for optical resistance similarly as above.

[1] = thin membrane on glass plate, no optical resistance-improving agent, transmittance at absorption maximum (about 450 nm)
[2] = thin membrane with equimolar azometallic complex Chemical Formula 15 as optical resistance-improving agent

Residual dye rate (%) [1] [%] | Residual dye rate (%) [2] [%] | Structure (SMILES)
30.1 | 92.2 | CN1C(=CC2=[N+](C)c3ccc4ccccc4c3C2(C)C)C(C)(C)c2c1ccc1ccccc21 [Chemical Formula 16]
29.3 | 91.7 | CN1C(=CC2=[N+](C)c3ccccc3C2(C)C)C(C)(C)c2ccccc21 [Chemical Formula 14]
